Reference: publication PMC3933301 (Journal of medicinal chemistry, 2013)
≈ marks a conversion by molar mass, not a printed value. Entries after “also recorded” stand apart in the source; their conditions may differ. Like-named read-outs stand apart in the source and are kept apart here.

How the values were obtained:
Mtb H37Rv [1] = experiment: Microplate Alamar Blue Assay; assay type: cell-based, Mycobacterium tuberculosis
Mtb H37Rv [2] = conditions: early leads of previous study, Figure 1; cited from earlier work
Mtb [3] = conditions: cited from earlier work
non-replicating Mtb = conditions: grown under low oxygen conditions; cited from earlier work
Mtb [4] = conditions: standard acute infection model, immune incompetent GKO mice; cited from earlier work
Mtb FtsZ [5] = target: T1, Mtb FtsZ (Mycobacterium tuberculosis, UniProt P9WN95); experiment: Mtb-FtsZ polymerization inhibitory assay; assay type: biochemical; conditions: FtsZ 15 µM, GTP 50 µM, 25 °C
T1 sequence (P9WN95 whole entry): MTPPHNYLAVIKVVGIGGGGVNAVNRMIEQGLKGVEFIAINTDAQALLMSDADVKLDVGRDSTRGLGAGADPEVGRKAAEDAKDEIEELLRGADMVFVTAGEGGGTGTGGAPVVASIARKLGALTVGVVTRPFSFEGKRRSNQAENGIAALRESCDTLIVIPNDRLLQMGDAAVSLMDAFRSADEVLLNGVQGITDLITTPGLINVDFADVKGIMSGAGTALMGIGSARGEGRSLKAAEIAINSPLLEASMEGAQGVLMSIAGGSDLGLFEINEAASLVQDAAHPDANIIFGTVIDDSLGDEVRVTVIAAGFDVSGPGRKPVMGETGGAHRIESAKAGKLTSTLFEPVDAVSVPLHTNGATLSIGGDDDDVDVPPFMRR

Mtb FtsZ [6] = target: T1, Mtb FtsZ; assay type: biochemical; conditions: for TEM: effect on GTP-initiated FtsZ polymerization: FtsZ 5 µM, GTP 25 µM
Cytotoxicity assay = assay type: cell-based; conditions: Cercopithecus aethiops (African green monkey)

For `CCCCOC(=O)Nc1cc2nc(C3CCCCC3)[nH]c2cc1N(CC)CC` [Compound 1], the MIC (Mtb H37Rv [1]; Mycobacterium tuberculosis, H37RV, read-out: Mtb H37Rv MIC) is given as 0.63 µg/mL (≈ 1.63 µM), the “MIC of early lead compounds” value (Mtb H37Rv [2]) is given as 0.63 µg/mL and the Bactericidal activity (Mtb [3]) is given as “bactericidal”. For the same molecule, the “Activity against non-replicating Mtb” value (non-replicating Mtb) was “active” and the Efficacy in vivo (Mtb [4]) was “good efficacy”.
For `CCCCOC(=O)Nc1cc2nc(C3CCCCC3)[nH]c2cc1N1CCCC1` [Compound 2], the Bactericidal activity (Mtb [3]) is listed as “bactericidal” and the “Activity against non-replicating Mtb” value (non-replicating Mtb) is listed as “active”.
With `CCCCOC(=O)Nc1cc2nc(C3CCCCC3)[nH]c2cc1N(C)C` [Compound 5f, 5-Butyloxycarbonylamino-2-cyclohexyl-6-N,N-dimethylamino-1H-benzo[d]imidazole] the “Potency relative to 1 (Mtb H37Rv MIC)” value (Mtb H37Rv [1]) was 11 times, the “Inhibition of Mtb FtsZ polymerization (light scattering)” value (from here on “Inhibition of Mtb FtsZ polymerization”) (Mtb FtsZ [5]) was “inhibit the assembly of Mtb FtsZ in a dose dependent manner; also recorded: effective dose-dependent inhibition” and the “TEM: effect on preformed FtsZ polymers” value (Mtb FtsZ [6]; 5f 40 µM or 80 µM added after polymerization with GTP 25 µM) was “capable of disrupting the formed FtsZ polymers and aggregates; also recorded: effectively disassembled”. For the same molecule, the “TEM: effect on GTP-initiated FtsZ polymerization” value (Mtb FtsZ [6]; 5f 40 µM) was “reduction in the density and population of FtsZ polymers, protofilaments and aggregates” and the “TEM: effect on GTP-initiated FtsZ polymerization” value (Mtb FtsZ [6]; 5f 80 µM) was “more apparent”.
With `CCN(CC)c1cc2[nH]c(C3CCCCC3)nc2cc1NC(=O)OCC(F)(F)F` [Compound 5n, 2-Cyclohexyl-6-N,N-diethylamino-5-trifluoroethoxycarbonylamino-1H-benzo[d]imidazole] the IC50 (Cytotoxicity assay) was > 100 µg/mL.
With `O=C(Nc1cc2nc(C3CCCCC3)[nH]c2cc1N1CCCC1)OCC(F)(F)F` [Compound 5o, 2-Cyclohexyl-5-trifluoroethoxycarbonylamino-6-prrolidinyl-1H-benzo[d]imidazole] the IC50 (Cytotoxicity assay) was > 100 µg/mL.
With `CN(C)c1cc2[nH]c(C3CCCCC3)nc2cc1NC(=O)OCC(F)(F)F` [Compound 5p, 2-Cyclohexyl-5-trifluoroethoxycarbonylamino-6-N,N-dimethylamino-1H-benzo[d]imidazole] the IC50 (Cytotoxicity assay) was > 100 µg/mL and the “Inhibition of Mtb FtsZ polymerization” value (Mtb FtsZ [5]) was “inhibit the assembly of Mtb FtsZ in a dose dependent manner; also recorded: effective dose-dependent inhibition”.
In the case of `CCc1ccc(C(=O)Nc2cc3nc(C4CCCCC4)[nH]c3cc2N(C)C)cc1` [Compound 7c-6, 2-Cyclohexyl-5-(4-ethylbenzamido)-6-N,N-dimethylamino-1H-benzo[d]imidazole], the “Inhibition of Mtb FtsZ polymerization” value (Mtb FtsZ [5]) is reported as “inhibit the assembly of Mtb FtsZ in a dose dependent manner; also recorded: effective dose-dependent inhibition”.
